Laboratory results: ChEMBL document CHEMBL1201862, “PubChem BioAssay data set” (2004)
Calls of active or inactive are those of the source.

Experiments:
[1] = target: T1, Endoribonuclease toxin MazF (Escherichia coli K-12, UniProt P0AE70); assay: MazF endoribonuclease activators, SAR follow-up, biochemical, fluorescence, single-stranded RNA substrate (AID 588603); type: functional
T1 sequence (P0AE70 whole entry): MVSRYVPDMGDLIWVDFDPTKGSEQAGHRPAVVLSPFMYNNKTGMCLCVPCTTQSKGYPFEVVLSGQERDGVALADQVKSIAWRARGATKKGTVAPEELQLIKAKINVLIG

[2] = target: T1, Endoribonuclease toxin MazF; assay: MazF toxin RNase activators, dose response, biochemical, fluorescence, single-stranded RNA substrate, uHTS hits (AID 588481); type: functional
MEF = assay: SAR analysis of small molecule cytotoxicity of MazEF TA System activators in embryonic fibroblast (MEF) cells. [Related pubchem assays (depositor defined):AID504720, AID504743]; type: functional; details: Mus musculus
[3] = target: T1, Endoribonuclease toxin MazF; assay: SAR analysis of small molecule activators of the MazEF TA System via a fluorescence-based single-stranded RNase assay counterscreen. [Related pubchem assays (depositor defined):AID504720, AID504743]; type: functional
[4] = target: T1, Endoribonuclease toxin MazF; assay: fluorescent RNA oligo signal without MazF, dose response, counter-screen for MazEF activator project, biochemical, fluorescence, single-stranded RNase substrate (AID 588502); type: functional
[5] = Luminescence Cell-Based Dose Response HTS to Identify Activators of Luciferase Translation or Activity in H4 […] Cells. [Related pubchem assays: 1829 (Project Summary), 1814 (Primary HTS)]; type: functional
H4 = assay: Luminescence Cell-Based Dose Response HTS to Identify Activators of 5'UTR Stem-Loop Driven Prion Protein mRNA Translation in H4 Neuroglioblastoma Cells. [Related pubchem assays: 1829 (Project Summary), 1814 (Primary HTS)]; type: functional; details: Homo sapiens
[6] = target: T2, High affinity choline transporter 1 (Homo sapiens, UniProt Q9GZV3); assay: CHT activators, dose response, cell-based, 10-point CRC, membrane potential dye (AID 602376); type: functional
T2 sequence (Q9GZV3 whole entry): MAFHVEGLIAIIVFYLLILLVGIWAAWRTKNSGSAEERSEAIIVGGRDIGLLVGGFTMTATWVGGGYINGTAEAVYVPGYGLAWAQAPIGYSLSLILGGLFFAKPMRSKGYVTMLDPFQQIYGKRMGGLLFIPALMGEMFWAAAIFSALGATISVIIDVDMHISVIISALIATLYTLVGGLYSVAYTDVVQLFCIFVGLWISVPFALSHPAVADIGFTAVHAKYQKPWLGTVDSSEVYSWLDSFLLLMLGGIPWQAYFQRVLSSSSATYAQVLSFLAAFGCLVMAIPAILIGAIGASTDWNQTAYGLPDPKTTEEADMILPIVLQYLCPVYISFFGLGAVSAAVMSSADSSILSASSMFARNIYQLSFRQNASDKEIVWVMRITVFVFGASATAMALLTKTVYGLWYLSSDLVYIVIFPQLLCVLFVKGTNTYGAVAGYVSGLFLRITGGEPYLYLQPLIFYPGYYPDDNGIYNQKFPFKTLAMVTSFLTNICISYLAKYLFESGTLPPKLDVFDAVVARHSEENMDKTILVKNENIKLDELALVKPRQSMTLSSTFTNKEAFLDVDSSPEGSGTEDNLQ

[7] = target: Benomyl/methotrexate resistance protein (Candida albicans, UniProt P28873); assay: CaMdr1 efflux pump inhibitor potency, dose response, singleplex, Cherry Pick2 set (AID 623992); type: functional; details: read-out: EC50_MICROM
Candida albicans [8] = assay: growth inhibition of resistant C. albicans, dose response, CaCi-8 strain, fluconazole, dry powder, set 4 (AID 488950); type: functional, organism-based
Candida albicans [9] = assay: C. albicans growth inhibition with fluconazole, dose response, antifungal resistance reversal project, CaCi-2 strain, Alamar Blue, dry powder, set 2 (AID 488930); type: functional, organism-based
Candida albicans [10] = assay: fluconazole resistance reversal in C. albicans, dose response, CaCi-2 strain, Alamar Blue, dry powder, set 4 (AID 488943); type: functional, organism-based
Candida albicans [11] = assay: growth inhibition of azole-resistant C. albicans, dose response, CaCi-8 strain, Alamar Blue, dry powder, set 2 (AID 488909); type: functional, organism-based
HEK293 [12] = assay: cytotoxicity in HEK293T NF-kB-Luc cells, SAR follow-up, cytotoxicity control for NF-kB activator project, cell-based, resazurin fluorescence (AID 493251); type: functional; details: Homo sapiens
Jurkat = assay: SAR Analysis of small molecule inhibitors of T-cell specific antigen receptor-induced NF-kB activation in a Jurkat cell line using a luminescence assay - Set 2. [Related pubchem assays (depositor defined):AID435003, AID435012, AID465]; type: functional, cell-based; details: Homo sapiens
HEK293 [13] = assay: SAR Analysis of small molecule inhibitors of T-cell specific antigen receptor-induced NF-kB activation in a HEK-293T cell line using a luminescence assay - Set 2. [Related pubchem assays (depositor defined):AID435003, AID435012, AID489026]; type: functional, cell-based; details: Homo sapiens
INS1 = assay: caspase-3/7 inhibition in cytokine-treated INS-1E, dose response, beta-cell apoptosis inhibitor project, cell-based, caspase luminescence, dry powder (AID 488848); type: functional; details: Rattus norvegicus
Phospholipase D2 [14] = target: T3, Phospholipase D2 (Homo sapiens, UniProt O14939); assay: PLD2 inhibitor potency in cells, dose response (AID 602147); type: functional;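 also: cellular assay in HEK293 cells overexpressing GFP-tagged PLD2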
Phospholipase D1 = target: T4, Phospholipase D1 (Homo sapiens, UniProt Q13393); assay: PLD1 purified enzyme concentration response. [Related pubchem assays (depositor defined):AID588854]; type: functional
T4 sequence (Q13393 whole entry): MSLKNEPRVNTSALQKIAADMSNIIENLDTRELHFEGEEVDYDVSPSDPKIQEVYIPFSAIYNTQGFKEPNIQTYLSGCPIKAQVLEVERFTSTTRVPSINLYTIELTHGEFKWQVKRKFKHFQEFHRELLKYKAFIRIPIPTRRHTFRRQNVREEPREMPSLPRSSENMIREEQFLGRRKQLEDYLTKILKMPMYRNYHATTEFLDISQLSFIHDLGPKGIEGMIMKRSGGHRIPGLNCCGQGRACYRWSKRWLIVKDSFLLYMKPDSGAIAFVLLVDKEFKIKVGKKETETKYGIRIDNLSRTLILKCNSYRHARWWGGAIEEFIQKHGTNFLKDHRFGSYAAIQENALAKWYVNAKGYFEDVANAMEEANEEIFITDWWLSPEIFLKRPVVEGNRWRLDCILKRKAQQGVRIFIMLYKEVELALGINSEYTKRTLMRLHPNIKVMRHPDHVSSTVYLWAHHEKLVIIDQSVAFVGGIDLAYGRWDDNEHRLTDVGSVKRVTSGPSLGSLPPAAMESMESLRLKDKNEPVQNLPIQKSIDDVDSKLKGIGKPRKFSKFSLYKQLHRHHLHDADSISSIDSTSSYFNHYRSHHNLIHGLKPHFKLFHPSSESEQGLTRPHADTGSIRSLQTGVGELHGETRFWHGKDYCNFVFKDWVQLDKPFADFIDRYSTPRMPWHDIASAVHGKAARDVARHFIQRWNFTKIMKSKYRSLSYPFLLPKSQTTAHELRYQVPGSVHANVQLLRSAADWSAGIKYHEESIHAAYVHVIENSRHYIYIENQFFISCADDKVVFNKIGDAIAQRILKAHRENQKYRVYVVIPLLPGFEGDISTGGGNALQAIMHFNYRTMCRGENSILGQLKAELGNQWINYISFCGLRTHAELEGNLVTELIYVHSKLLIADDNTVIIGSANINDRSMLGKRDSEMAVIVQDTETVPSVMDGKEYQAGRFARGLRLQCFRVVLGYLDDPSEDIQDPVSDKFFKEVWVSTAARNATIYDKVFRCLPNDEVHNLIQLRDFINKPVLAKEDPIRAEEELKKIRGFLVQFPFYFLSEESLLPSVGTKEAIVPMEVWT

Phospholipase D2 [15] = target: T3, Phospholipase D2; assay: PLD2 purified enzyme concentration response. [Related pubchem assays (depositor defined):AID588854]; type: functional
[16] = target: Cell division cycle 7-related protein kinase (Homo sapiens, UniProt O00311); type: functional;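 also: value obtained from a kinome-wide kinase panel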
Wee1-like protein kinase = Wee1-like protein kinase (Homo sapiens, UniProt P30291); assay: Navigating the Kinome. Panel member name: WEE1; type: functional
[17] = target: Cyclin-dependent kinase 19 (Homo sapiens, UniProt Q9BWU1); assay: Navigating the Kinome. Panel member name: CDC2L6; type: functional
SRSF protein kinase 1 = SRSF protein kinase 1 (Homo sapiens, UniProt Q96SB4); type: functional;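 also: measured as one member of a kinome-wide kinase profiling panel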
[18] = target: Serine/threonine-protein kinase pim-1 (Homo sapiens, UniProt P11309); type: functional
[19] = target: MAP kinase-activated protein kinase 5 (Homo sapiens, UniProt Q8IW41); type: functional;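 also: measured as one member of a kinome panel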
[20] = target: Protein-tyrosine kinase 2-beta (Homo sapiens, UniProt Q14289); type: functional
[21] = target: Dual specificity protein kinase CLK4 (Homo sapiens, UniProt Q9HAZ1); type: functional
[22] = target: Tyrosine-protein kinase receptor UFO (Homo sapiens, UniProt P30530); type: functional
Aurora kinase A = Aurora kinase A (Homo sapiens, UniProt O14965); type: functional;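 also: value from the Navigating the Kinome kinase panel profiling, panel entry STK6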
[23] = target: Vascular endothelial growth factor receptor 2 (Homo sapiens, UniProt P35968); type: functional
Aurora kinase B = Aurora kinase B (Homo sapiens, UniProt Q96GD4); type: functional
[24] = target: Sphingosine 1-phosphate receptor 2 (Homo sapiens, UniProt O95136); assay: Late-stage fluorescence-based dose-response cell-based counterscreen assay to identify agonists of the Sphingosine 1-Phosphate Receptor 3 (S1P3): Sphingosine 1-Phosphate Receptor 2 (S1P2) agonist assay.; type: functional
[25] = target: T5, Sphingosine 1-phosphate receptor 4 (Homo sapiens, UniProt O95977); assay: Late-stage fluorescence-based dose-response cell-based counterscreen assay to identify agonists of the Sphingosine 1-Phosphate Receptor 3 (S1P3): Sphingosine 1-Phosphate Receptor 4 (S1P4) agonist assay.; type: functional
T5 sequence (O95977 whole entry): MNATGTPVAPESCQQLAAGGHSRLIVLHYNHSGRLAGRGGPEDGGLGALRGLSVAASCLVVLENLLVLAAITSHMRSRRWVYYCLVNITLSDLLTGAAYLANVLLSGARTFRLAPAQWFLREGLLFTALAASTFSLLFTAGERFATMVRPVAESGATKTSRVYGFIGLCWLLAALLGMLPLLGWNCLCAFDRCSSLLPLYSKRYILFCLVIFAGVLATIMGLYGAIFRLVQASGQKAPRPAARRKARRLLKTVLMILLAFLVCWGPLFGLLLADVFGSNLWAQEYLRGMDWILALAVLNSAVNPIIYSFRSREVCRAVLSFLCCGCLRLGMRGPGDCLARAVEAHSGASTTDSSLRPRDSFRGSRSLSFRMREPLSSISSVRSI

[26] = target: Serine/threonine-protein kinase pim-3 (Homo sapiens, UniProt Q86V86); type: functional;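 also: value obtained as one member of a broad kinase panel profiling effort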
[27] = THP-1 cell cytotoxicity, cytotoxicity control, set 6 (AID 602433); type: functional; details: Mycobacterium tuberculosis

Sequence of Serine/threonine-protein kinase pim-1 (P11309 whole entry): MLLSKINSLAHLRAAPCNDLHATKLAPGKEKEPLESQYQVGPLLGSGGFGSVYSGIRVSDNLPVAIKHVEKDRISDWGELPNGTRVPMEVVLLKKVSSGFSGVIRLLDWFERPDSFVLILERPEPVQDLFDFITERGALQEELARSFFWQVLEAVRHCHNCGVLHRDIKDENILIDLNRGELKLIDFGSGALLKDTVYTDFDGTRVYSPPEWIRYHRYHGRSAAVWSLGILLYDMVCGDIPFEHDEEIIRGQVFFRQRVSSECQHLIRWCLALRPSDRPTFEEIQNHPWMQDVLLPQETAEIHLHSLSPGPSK
Sequence of Cell division cycle 7-related protein kinase (O00311 whole entry): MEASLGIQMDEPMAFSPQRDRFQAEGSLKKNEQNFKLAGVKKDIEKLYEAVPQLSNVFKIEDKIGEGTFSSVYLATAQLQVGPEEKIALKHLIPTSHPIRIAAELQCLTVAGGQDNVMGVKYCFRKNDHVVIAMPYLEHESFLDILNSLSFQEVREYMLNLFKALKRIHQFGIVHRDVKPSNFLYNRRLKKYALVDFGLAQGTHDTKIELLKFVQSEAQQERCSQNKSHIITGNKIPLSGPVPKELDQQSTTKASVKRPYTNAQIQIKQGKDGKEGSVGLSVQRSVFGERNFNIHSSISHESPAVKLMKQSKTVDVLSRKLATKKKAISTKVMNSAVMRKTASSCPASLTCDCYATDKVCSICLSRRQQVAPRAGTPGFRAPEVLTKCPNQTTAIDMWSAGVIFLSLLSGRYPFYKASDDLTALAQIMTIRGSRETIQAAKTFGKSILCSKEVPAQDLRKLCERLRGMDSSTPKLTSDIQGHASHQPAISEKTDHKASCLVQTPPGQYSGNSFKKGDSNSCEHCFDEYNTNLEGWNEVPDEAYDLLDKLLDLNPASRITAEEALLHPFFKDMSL
Sequence of Aurora kinase B (Q96GD4 whole entry): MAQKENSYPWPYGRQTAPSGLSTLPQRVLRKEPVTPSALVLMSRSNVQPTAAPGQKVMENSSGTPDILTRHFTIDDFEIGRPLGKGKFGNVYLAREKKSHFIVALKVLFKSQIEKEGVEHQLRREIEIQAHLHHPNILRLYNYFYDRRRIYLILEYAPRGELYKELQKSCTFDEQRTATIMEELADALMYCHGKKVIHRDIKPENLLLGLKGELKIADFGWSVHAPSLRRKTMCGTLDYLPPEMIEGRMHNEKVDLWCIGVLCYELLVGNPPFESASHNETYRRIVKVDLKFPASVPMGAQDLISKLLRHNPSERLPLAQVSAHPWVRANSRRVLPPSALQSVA
T3 sequence (O14939 whole entry): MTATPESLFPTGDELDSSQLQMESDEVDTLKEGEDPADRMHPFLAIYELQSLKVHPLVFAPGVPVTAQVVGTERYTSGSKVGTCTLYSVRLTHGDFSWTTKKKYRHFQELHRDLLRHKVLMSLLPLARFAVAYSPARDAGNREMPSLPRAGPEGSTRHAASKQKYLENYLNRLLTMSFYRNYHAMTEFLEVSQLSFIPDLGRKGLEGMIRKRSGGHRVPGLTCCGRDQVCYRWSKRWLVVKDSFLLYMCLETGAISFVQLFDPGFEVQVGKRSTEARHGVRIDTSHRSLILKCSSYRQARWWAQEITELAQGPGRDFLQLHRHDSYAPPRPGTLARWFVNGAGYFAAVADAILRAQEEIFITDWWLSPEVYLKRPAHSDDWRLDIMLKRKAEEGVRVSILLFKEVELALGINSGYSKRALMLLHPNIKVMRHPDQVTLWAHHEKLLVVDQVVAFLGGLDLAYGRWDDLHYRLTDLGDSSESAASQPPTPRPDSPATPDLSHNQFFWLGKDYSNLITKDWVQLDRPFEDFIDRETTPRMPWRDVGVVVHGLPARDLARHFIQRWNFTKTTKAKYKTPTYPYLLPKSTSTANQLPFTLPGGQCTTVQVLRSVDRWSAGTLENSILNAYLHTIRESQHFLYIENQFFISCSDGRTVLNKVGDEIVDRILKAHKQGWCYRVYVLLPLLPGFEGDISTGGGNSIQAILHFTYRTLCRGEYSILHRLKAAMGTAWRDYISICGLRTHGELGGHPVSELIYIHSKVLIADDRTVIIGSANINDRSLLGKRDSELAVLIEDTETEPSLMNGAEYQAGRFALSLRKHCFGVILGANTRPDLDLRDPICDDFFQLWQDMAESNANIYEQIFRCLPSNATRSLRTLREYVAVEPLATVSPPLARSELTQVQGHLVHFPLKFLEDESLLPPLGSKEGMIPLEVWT
Sequence of Wee1-like protein kinase (P30291 whole entry): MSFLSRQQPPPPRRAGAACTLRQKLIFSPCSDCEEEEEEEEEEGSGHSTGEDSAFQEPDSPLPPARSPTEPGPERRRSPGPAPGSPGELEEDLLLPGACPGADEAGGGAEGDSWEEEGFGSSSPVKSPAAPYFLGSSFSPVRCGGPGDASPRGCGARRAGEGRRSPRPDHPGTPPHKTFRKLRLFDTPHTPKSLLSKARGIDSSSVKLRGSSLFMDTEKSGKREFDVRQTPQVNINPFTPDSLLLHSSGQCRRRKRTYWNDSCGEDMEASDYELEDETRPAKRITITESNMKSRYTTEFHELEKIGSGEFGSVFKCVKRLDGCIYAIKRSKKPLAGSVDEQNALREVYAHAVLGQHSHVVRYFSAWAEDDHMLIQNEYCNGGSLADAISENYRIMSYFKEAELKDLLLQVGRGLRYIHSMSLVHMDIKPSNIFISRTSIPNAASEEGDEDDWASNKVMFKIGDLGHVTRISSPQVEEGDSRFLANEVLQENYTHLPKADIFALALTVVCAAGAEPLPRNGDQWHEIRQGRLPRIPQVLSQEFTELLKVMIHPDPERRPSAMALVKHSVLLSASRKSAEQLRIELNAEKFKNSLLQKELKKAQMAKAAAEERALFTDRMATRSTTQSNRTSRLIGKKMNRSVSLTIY
Sequence of Tyrosine-protein kinase receptor UFO (P30530 whole entry): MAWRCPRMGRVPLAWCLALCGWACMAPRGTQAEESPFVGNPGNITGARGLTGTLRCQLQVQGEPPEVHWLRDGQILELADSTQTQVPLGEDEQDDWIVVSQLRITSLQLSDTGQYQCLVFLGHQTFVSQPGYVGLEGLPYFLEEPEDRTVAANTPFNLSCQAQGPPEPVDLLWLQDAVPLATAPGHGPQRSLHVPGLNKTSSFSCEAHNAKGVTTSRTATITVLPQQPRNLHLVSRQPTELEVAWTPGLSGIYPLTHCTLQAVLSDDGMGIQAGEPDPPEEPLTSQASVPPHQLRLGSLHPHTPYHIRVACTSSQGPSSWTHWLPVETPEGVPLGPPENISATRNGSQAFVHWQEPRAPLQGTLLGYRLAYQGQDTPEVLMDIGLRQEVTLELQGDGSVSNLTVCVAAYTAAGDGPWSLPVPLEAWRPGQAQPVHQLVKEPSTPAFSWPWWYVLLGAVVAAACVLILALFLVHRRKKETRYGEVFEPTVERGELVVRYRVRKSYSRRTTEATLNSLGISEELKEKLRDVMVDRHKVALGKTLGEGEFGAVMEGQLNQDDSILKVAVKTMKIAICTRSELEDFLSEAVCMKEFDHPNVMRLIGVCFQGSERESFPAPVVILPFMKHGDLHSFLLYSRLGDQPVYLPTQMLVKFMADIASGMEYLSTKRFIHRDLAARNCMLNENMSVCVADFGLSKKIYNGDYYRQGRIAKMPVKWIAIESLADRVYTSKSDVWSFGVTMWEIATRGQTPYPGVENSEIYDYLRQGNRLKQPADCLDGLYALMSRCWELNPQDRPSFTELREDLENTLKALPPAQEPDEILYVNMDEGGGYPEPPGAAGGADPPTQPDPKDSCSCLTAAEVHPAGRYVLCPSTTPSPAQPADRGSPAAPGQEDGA
Sequence of Benomyl/methotrexate resistance protein (P28873 whole entry): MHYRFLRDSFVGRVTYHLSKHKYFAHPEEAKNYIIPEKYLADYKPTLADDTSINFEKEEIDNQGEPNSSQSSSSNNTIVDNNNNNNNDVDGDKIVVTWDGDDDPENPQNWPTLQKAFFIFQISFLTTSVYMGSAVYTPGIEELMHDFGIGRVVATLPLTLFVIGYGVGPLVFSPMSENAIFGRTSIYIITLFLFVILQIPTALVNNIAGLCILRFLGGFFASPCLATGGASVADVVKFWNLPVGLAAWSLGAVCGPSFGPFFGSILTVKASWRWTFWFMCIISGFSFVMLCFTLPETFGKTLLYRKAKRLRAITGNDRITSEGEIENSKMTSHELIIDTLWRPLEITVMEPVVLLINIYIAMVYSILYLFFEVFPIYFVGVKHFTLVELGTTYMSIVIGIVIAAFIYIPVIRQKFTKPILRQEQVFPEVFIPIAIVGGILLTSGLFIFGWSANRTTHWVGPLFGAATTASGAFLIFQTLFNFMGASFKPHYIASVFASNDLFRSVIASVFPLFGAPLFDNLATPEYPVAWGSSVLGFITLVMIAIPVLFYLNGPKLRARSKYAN
Sequence of Dual specificity protein kinase CLK4 (Q9HAZ1 whole entry): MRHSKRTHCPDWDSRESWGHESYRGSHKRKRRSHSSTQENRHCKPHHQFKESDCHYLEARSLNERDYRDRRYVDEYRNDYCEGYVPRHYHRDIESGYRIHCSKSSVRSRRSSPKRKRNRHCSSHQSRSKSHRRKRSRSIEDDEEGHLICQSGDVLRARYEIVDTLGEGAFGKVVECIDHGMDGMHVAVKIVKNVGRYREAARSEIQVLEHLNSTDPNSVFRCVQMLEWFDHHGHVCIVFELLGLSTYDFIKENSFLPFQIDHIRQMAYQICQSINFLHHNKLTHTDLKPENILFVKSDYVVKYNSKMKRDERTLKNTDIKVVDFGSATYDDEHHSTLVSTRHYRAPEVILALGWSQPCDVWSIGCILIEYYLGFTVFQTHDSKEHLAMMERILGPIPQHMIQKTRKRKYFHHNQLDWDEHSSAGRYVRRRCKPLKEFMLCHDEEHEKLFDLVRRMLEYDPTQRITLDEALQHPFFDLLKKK

## O=C1c2ccccc2C(Nc2ccc(S(=O)(=O)N3CCCCCC3)cc2)N1c1ccccn1 (centres undefined)
[1]
  EC50: 19.3 µM (active)
[2]
  EC50: 16.1 µM (active)
MEF
  CC50: > 99 µM (inactive)
[3]
  EC50: > 99 µM (inactive)
[4]
  EC50: > 99 µM (inactive)

## CCC1=[N+](CC(=O)c2ccc(C)cc2)CCn2c(C)ccc21
[5]
  EC50: > 120 µM (not active)
H4
  EC50: 28.3 µM (active)
[6]
  EC50: 13 µM (active)

## O=C(/C=C/c1cccs1)N1CCC2(CC1)Oc1ccc(F)cc1C(=O)C21CC(c2ccccc2)=NO1 (centres undefined)
[7]
  EC50: 29.7 µM (active)

## O=C(c1ccc(Cl)cc1)N1CCN(c2ccnc3ccc(Cl)cc23)CC1
Candida albicans [8]
  AC50: 1.47 µM (active)
Candida albicans [9]
  AC50: < 800 nM (active)
Candida albicans [10]
  AC50: 397 nM (active)
Candida albicans [11]
  AC50: 9.92 µM (active)

## N#Cc1cccc(NC(=O)c2ccc([N+](=O)[O-])o2)c1
HEK293 [12]
  IC50: 57.4 µM (inactive)
Jurkat
  IC50: 18.1 µM (active)
HEK293 [13]
  IC50: 32.9 µM (inactive)

## COc1ccc(S(=O)(=O)N(C)C[C@@H]2Oc3c(NC(=O)Nc4cccc(-c5ncccn5)c4)cccc3C(=O)N([C@@H](C)CO)C[C@H]2C)cc1
INS1
  AC50: 98 µM (active)

## O=C(NCCN1CCC2(CC1)C(=O)NCN2c1ccc(F)c(F)c1)c1cnc2ccccc2c1
Phospholipase D2 [14]
  IC50: 69 nM (active)
Phospholipase D1
  IC50: 5.48 µM (active)
Phospholipase D2 [15]
  IC50: 200 nM (active)

## c1cc(NC2CCCCC2)nc(Nc2ccc3[nH]ncc3c2)n1
[16]
  Ki: 200 nM (active)
Wee1-like protein kinase
  Ki: > 3.16 µM (inactive)

## Oc1cncc2nc(-c3ccncc3)ccc12
[16]
  Ki: 501 nM (active)
[17]
  Ki: > 100 µM (inactive)

## O=C1CC(c2ccc(Cl)cc2)Cc2[nH]c3cc(Cl)ccc3c(=O)c21 (centres undefined)
SRSF protein kinase 1
  Ki: 6.31 µM (active)
[18]
  Ki: 5.01 µM (active)
[19]
  Ki: 1.26 µM (active)
[20]
  Ki: 1.58 µM (active)
[21]
  Ki: 6.31 µM (active)
[22]
  Ki: 1.58 µM (active)

## O=C(CCCCCCC(=NO)c1ncco1)Nc1cccc(-c2ccccc2)c1
Aurora kinase A
  Ki: > 2 µM (inactive)
[23]
  Ki: > 5.01 µM (inactive)
Aurora kinase B
  Ki: 25.1 nM (active)

## CC(C)Cc1cc(C(=O)N(C2CCCCC2)C2CCCCC2)no1
[24]
  EC50: > 50 µM (inactive)
[25]
  EC50: > 50 µM (inactive)

## N=C(N)Cc1cccc(-c2nc3ccccc3[nH]2)c1
[18]
  Ki: 5.01 µM (active)
[26]
  Ki: 3.98 µM (active)
Aurora kinase B
  Ki: 2510 nM (active)

## CC(C)CCNC(=O)CSc1nc2c(c(=O)[nH]1)CCCC2
[27]
  CC50: > 100 µM (inconclusive)
